Results from patent US10085449B2, “N-[1-((6-chloropyridin-3-yl)methyl)pyridin-2(1H)-ylidene]-2,2,2- trifluoroacetamide for control of agricultural/horticultural pests” (priority 2010, dated 2018).
Where two headings read alike, the source gives them in different places.

Legend:
diamondback moth = experiment: whole plant or invertebrate; assay type: in vivo; conditions: Plutella xylostella, foliar
In short: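 Cabbage leaf discs sprayed with compound in 50% acetone/water with 0.05% Tween 20, air-dried, then infested with second-instar larvae. Held at 25 °C under 16 h light/8 h dark; mortality from dead/(live+dead) counts after 3 days, two replicates.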

green peach aphid = experiment: Green peach aphid control test (foliar application); assay type: in vivo; conditions: Myzus persicae, in Brassica oleracea, 72 h
Text: Leaf discs 2.8 cm in diameter were cut from cabbage plants grown in pots, and four adult aphids were released onto each disc. One day later, the adults were removed, and the number of first-instar larvae that had been deposited on each leaf disc was adjusted to 10. Next, the leaf discs parasitized by these first instar larvae were sprayed with solutions of the inventive compounds at a predetermined concentration prepared to 50% acetone/water (containing 0.05% Tween 20). The treated leaf discs were air dried, following which covers were placed over the Petri dishes and the leaf discs and larvae were held in an incubation chamber at 25° C. (16-hour period of light, 8-hour dark period). Three days after released, the numbers of live and dead insects were counted, and the mortality was calculated from the following formula. This was a two-replication test. Mortality (%)=[number of dead insects/(number of live insects+number of dead insects)]×100

green rice leafhopper = experiment: Green rice leafhopper control test (foliar application); assay type: in vivo; conditions: Nephotettix cincticeps, 96 h
Protocol: Rice seedlings grown in pots were subjected to the foliar application of solutions of the inventive compounds at a predetermined concentration prepared to 50% acetone/water (containing 0.05% Tween 20). The treated seedlings were air dried, following which second-instar larvae were released onto the seedlings. The seedlings and larvae were then held in an incubation chamber at 25° C. (16-hour period of light, 8-hour dark period). Four days after released, the numbers of live and dead insects were counted, and the mortality was calculated from the following formula. This was a two-replication test. Mortality (%)=[number of dead insects/(number of live insects+number of dead insects)]×100

western flower thrips = experiment: whole plant or invertebrate; assay type: in vivo; conditions: Frankliniella occidentalis, foliar
In short: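 Bean leaf discs sprayed with compound in 50% acetone/water with 0.05% Tween 20, air dried, then infested with first-instar larvae. Held at 25° C under 16 h light/8 h dark; live and dead counted after 3 days to give % mortality, two replicates.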

rice leaf bug = experiment: whole plant or invertebrate; assay type: in vivo; conditions: foliar, 72 h
In short: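 Four-day wheat seedling shoots dipped 30 s in compound solution (50% acetone/water, 0.05% Tween 20), air-dried, then infested with two second-instar larvae per glass cylinder at 25 °C, 16 h light/8 h dark. Mortality (%) counted after 3 days.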

brown-winged green bug = experiment: Brown-winged green bug control test; assay type: in vivo; conditions: 50 ppm foliar application on young apples, adults, 6 days after release
Protocol: Young apples that had been collected in the field were sprayed with solutions of the inventive compounds at a predetermined concentration prepared to 50% acetone/water (containing 0.05% Tween 20). The treated fruits were air-dried, placed in plastic cups and two adult brown-winged green bugs were released into each cup. Following release of the insects, the fruits and insects were held in an incubation chamber at 25° C. (16-hour period of light, 8-hour dark period). Six days after released, the numbers of live and dead insects were counted, and the mortality was calculated from the following formula. Mortality (%)=[number of dead insects/(number of live insects+number of dead insects)]×100

house fly = experiment: House fly control test (local application); assay type: in vivo; parameters: dose or concentration left out as unconfirmed
Protocol: The inventive compounds prepared to a predetermined concentration in acetone were applied in an amount of 1 μL (per insect) to the backs of adult female flies raised indoors. Following chemical treatment, the flies were transferred to plastic cups, with five flies being placed in each cup, and held in an incubation chamber at 25° C. (16-hour period of light, 8-hour dark period). Twenty-four hours after treatment, the state of knockdown among the flies was observed, and the knockdown rate was calculated from the following formula. The test was carried out as two replications. Knockdown rate (%)=[number of knocked down insects/(number of live insects+number of knocked down insects)]×100

[1] = system: Haemaphysalis longicornis; experiment: Tick (Haemaphysalis longicornis) control test on body surface of mouse; assay type: in vivo, Haemaphysalis longicornis on mice (ICR); conditions: 20 μL of 1,000-fold dilution of agent prepared as in Formulation Example 11 on mouse body surface, larval ticks, 3 days after release
Protocol: Ventral fur was shaved from an area having a diameter of about 2 cm in mice (ICR, 5-week-old males), and a 15 mL polystyrene conical tube cut to a length of about 1.5 cm was attached to the shaved area using instant glue.
An amount of 20 μL of a 1,000-fold dilution of the pest control agent prepared in the same way as in Formulation Example 11 was added dropwise onto the body surface of the mice within the attached tube. After the solution was allowed to dry thoroughly, ten or more larval ticks (Haemaphysalis longicornis) were released into the tube, which was then capped. Three days after released, the numbers of live and dead ticks were counted, and the mortality was calculated from the following formula. Blood-feeding inhibition (%)=100−[number of feeding ticks/(number of live ticks+number of dead ticks)]×100

[2] = read-out: Insecticidal effects (mortality), diamondback moth second-instar larvae
[3] = read-out: Insecticidal effects (mortality), western flower thrips first-instar larvae

Work on `O=C(N=c1ccccn1Cc1ccc(Cl)nc1)C(F)(F)F` [Compound 212, N-[1-((6-chloropyridin-3-yl)methyl)pyridin-2(1H)-ylidene]-2,2,2-trifluoroacetamide] yielded a mortality at 20 ppm (diamondback moth; [2]) of 100%, a mortality at 100 ppm (diamondback moth; [2]) of 100% and a mortality at 500 ppm (diamondback moth; [2]) of 100%. The mortality at 100 ppm (diamondback moth; in Brassica oleracea, 72 h) was at least 80%, the mortality at 500 ppm (diamondback moth; in Brassica oleracea, 72 h) was at least 80% and the mortality at 100 ppm (green peach aphid) was at least 80%. It also gave a mortality at 100 ppm (green rice leafhopper) of at least 80%, a mortality at 100 ppm (western flower thrips; 72 h) of at least 80% and a mortality at 500 ppm (western flower thrips; 72 h) of at least 80%. The mortality at 20 ppm (western flower thrips; [3]) was 65%, the mortality at 100 ppm (western flower thrips; [3]) was 100% and the mortality at 500 ppm (western flower thrips; [3]) was 100%. The mortality at 50 ppm (rice leaf bug) was at least 80%, the Mortality (brown-winged green bug) was “at least 80%” and the “Insecticidal effects (mortality), adult houseflies” value (house fly) was 100. It also gave a Blood-feeding inhibition [1] of 91%.
